Data published in article PMC3506555, “[^11C]phenytoin revisited: synthesis by [^11C]CO carbonylation and first evaluation as a P-gp tracer in rats” (EJNMMI Research, 2012).

Experiments:
[1] = tested on: P-gp; design: method as in PMID 14642487, PMID 16857389, PMID 15961982, PMID 18783208, PMID 19647170; conditions: rat and human brain; cited from earlier work
[2] = Observation of animals after probenecid administration; type: in vivo; conditions: probenecid 150 mg·kg^−1 i.v., during 30 to 40 min after administration

Structure (SMILES) | Brain-to-plasma equilibrium concentration ratio (VT) at baseline [1] | Breathing frequency after administration [2]
[11CH3]NC(=O)C(CCN1CCC(O)(c2ccc(Cl)cc2)CC1)(c1ccccc1)c1ccccc1 [^11C]desmethyl loperamide] | about 1 | 
COC(=O)c1cnc2n1CCc1ccccc1C2=C1CCN(CCc2ccc(OCc3ccc4ccccc4n3)cc2)CC1 [^11C]laniquidar] | about 1 | 
COc1cc2c(cc1OC)CN(CCc1ccc(NC(=O)c3cc(O[11CH3])c(OC)cc3NC(=O)c3cnc4ccccc4c3)cc1)CC2 [^11C]tariquidar] | about 1 | 
CCCN(CCC)S(=O)(=O)c1ccc(C(=O)O)cc1 [probenecid] |  | severely depressed breathing frequency
